Assay [1] has as its system normal human fibroblasts. Put plainly: Stimulation of collagen synthesis, 3H-proline incorporation. As to conditions: Vitamin C 20 μg/ml; 48 hrs. Format: cell-based. The protocol:
A control was made in parallel with medium only. After 24 hrs of contact, radioactive […]-proline) is added to the medium. At the end of the experiment, the supernatants are collected for dosing the incorporation of radioactive […] into the intracellular proteins.

Assay [2] concerns normal human dermal fibroblasts. Put plainly: Fibroblast proliferation by FGF-2 protected by heparin or extract 5c (PNPP). Format: cell-based. As to conditions: for Proliferation (expressed as percent relative to the non-treated well): 48 hrs, heparin 0.01% during 24 hrs at 37° C. The protocol: A solution of FGF-2 is prepared extemporaneously (=non-degraded FGF-2); a solution of FGF-2 is placed for 24 hrse at 37° C. in the absence (=degraded FGF-2) and in the presence of heparin (=FGF-2+heparin at 37° C.) at 0.01%.
Each FGF-2 solution is diluted so as to be applied on the cells, the final FGF-2 concentrations being the following: 0.1, 0.25, 0.5, 0.75 and 1 ng/ml.
Normal human dermal fibroblasts were sown at low density in 6-well plates. They were then grown in a medium in the absence (control) or in the presence of FGF-2 at various concentrations.
After 48 hrs, the activity of intracellular acid phosphatases (PNPP) is dosed, so as to be able to evaluate the effect of FGF-2 solutions, either treated or not, on cell proliferation.
The results are expressed as a proliferation percentage relative to the control well i.e. to the non-treated well.
The same experiment was conducted by replacing heparin with extract 5c. The FGF-2 solution put into the presence of 0.5% of extract 5c is placed for 24 hrs at 37° C. The solution is then diluted so as to apply 0.5 ng/ml of FGF-2 in the wells containing the fibroblasts.
The 5c extract concentration finally applied on the cells is 0.0025%. It was checked beforehand that this 5c extract concentration was not capable of inducing stimulation of the proliferation of fibroblasts. This means that the observed stimulation of proliferation is actually due to the protection of FGF-2 by extract 5c (see Table 8).

For assay [3], the system named is normal human fibroblasts. Put plainly: Stimulation of synthesis of total GAGs, radioactive glucosamine incorporation. Format: cell-based. As to conditions: TGF-β 10 ng/ml; 72 hrs. How it is done: (§1) Normal human fibroblasts stemming from a donor, were grown in 96-well plates with medium (consisting of DMEM, glutamine 2 mM, penicillin 50 IU/ml-streptomycin 50 μg/ml, 10% fetal calf serum) for 24 hrs. […] A control was made in parallel with the medium only.
After 48 hrs of contact, radioactive glucosamine (D-(6-^3H)-glucosamine) is added to the medium.
(§2) At the end of the experiment, the supernatants are collected for dosing the incorporation of radioactive glucosamine into the intracellular proteins. Dosage of the proteins is performed with a commercial kit (BioRad 500-0116).

Assay [4] concerns normal human fibroblasts. Put plainly: Stimulation of synthesis of sulfated GAGs, 35S-sulfate incorporation. The class given is cell-based. As to conditions: TGF-β 10 ng/ml. The protocol:
as §1, §2
In the same way, a study of the incorporation of ^35S-sulfate is conducted for quantifying the sulfated GAGs. The applied procedure is the same as that for the total GAGs, except for the nature of the radioactive precursor.

Assay [5] concerns the target T1, FGF-2 (Homo sapiens, UniProt P09038). Put plainly: Protection of FGF-2 against thermal degradation, stress of 2.15 hrs at 45° C., FGF-2 dosed by ELISA kit. Format: biochemical. The following applies: for FGF-2 protection by GAGs and proteoglycans of the skin (in words): solutions at 0.1%. The protocol:
Degradation of FGF-2 observed at about 50° C. is particularly interesting, because a short period of time allows degradation of FGF-2 of about 80%, thereby allowing a large number of tests to be conducted. For this reason, it was decided to achieve screening with a stress of 2.15 hrs at 45° C. and to study the capacity of a large number of actives for protecting FGF-2 against this thermal degradation.
The applied screening model is the following: • 180 μl of a 4.5 ng/ml FGF-2 solution prepared in 0.1% BSA/PBS buffer are distributed in a 96-well microplate. 20 μl of distilled water or 0.05% heparin or a solution containing various active ingredients extracted from different plants to be tested are added. The plate is stirred by means of a plate stirrer and then covered with adhesive tape and placed in an oven at 45° C. for 2.15 hrs. At the end of the incubation period, the plate is taken out and dosage of FGF-2 is then carried out by means of the ELISA kit.
A control plate only containing FGF-2 and distilled water, treated under the same conditions, is left at room temperature.
The results are expressed as a FGF-2 protection percentage relatively to the non-stressed or non-degraded FGF-2 control.
The stress protocol described in Example 2 was applied, 20 μl of water being substituted with 20 μl of corresponding GAG or PG solution. The tested GAGs and PGs thereby undergo additional dilution to 1/10. […]
Target sequence in this assay (P09038 143-288): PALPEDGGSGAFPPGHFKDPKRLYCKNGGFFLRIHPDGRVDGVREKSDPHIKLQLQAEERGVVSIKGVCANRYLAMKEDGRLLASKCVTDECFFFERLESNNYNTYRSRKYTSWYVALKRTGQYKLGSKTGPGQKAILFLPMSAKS

The target of assay [6] is T1, FGF-2. The experiment in a line: Protection of FGF-2 at physiological temperature, FGF-2 dosed after 24 hrs at 37° C. The following applies: 0.01% heparin. Format: biochemical. How it is done:
It was absolutely necessary to check whether the extract 5c was able to protect FGF-2 at a physiological temperature, i.e., 37° C. This is why an investigation consisted of dosing FGF-2 after 24 hrs at 37° C. in the absence or in the presence of increasing concentrations of extract 5c.
Target sequence in this assay (P09038 143-288): as above

Assay [7] addresses T1, FGF-2. Put plainly: Study of thermal degradation (stability) of FGF-2 at various temperatures with or without heparin, ELISA. The class given is physicochemical. As to conditions: 0.05% heparin. The protocol:
A 5 ng/ml solution of FGF-2 in a 10 mM PBS buffer with 0.1% BSA and 0.1% of methylparaben is prepared.
This solution is placed at various temperatures: 4° C., 20° C., 37° C., 50° C., and 80° C. either in the presence of heparin or not at 500 μg/ml.
Dosages of FGF-2 with a commercial ELISA kit (R&D system, France) are performed at different times (T=0, 3 hrs, 24 hrs and 48 hrs) so as to establish degradation kinetics for each temperature of investigation.
The results are expressed as a percentage of FGF-2 relative to time T=0. The experiments are conducted in triplicates (n=3). The obtained results are illustrated in FIGS. 1 and 2.
Background: In an ELISA, binding on a coated surface is turned into a signal by an enzyme label.
Target sequence in this assay (P09038 143-288): as above

Assay [8] has as its target T1, FGF-2. As to conditions: pH 2 and pH 9 versus neutral pH; cited from earlier work.
Target sequence in this assay (P09038 134-288 limits assumed): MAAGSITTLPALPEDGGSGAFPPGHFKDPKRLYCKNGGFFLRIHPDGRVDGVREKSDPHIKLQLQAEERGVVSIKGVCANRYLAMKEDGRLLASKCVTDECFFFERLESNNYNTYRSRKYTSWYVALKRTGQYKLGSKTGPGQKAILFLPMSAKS
Assay [9] has as its target T1, FGF-2. As to conditions: cited from earlier work.
Target sequence in this assay (P09038 134-288 limits assumed): as above
The target of assay [10] is T1, FGF-2. As to conditions: 3 hours of incubation at 37° C.; cited from earlier work.
Target sequence in this assay (P09038 134-288 limits assumed): as above
Where [11] appears, read: 0.01%, 0.001%, further diluted 1/10, 45° C. 2.15 hrs.

In the case of `O=C1O[C@H]([C@@H](O)CO)C(O)=C1O` [Vitamin C, vitamin C], in assay [1], the “% control (collagen synthesis)” value is 170% and the “cpm (3H-proline incorporation)” value came out at 10185 cpm.
Turning to “Degraded FGF-2: solution of FGF-2 placed for 24 hrs at 37° C. in the absence of heparin”, the “Proliferation (as a percentage) of fibroblasts relative to the non-treated control” value in assay [2] (FGF-2 0.5 ng/ml, 0.5% 5c extract during 24 hrs at 37° C. (0.0025% on the cells)) is 123.7% ± 0.005. Also, the “Proliferation (expressed as percent relative to the non-treated well)” value is reported as 96.2 ± 0.014% in [2] (FGF-2 concentration 0.1 ng/ml); 111 ± 0.006% in [2] (FGF-2 concentration 0.25 ng/ml); 123.7 ± 0.005% in assay [2] (FGF-2 concentration 0.5 ng/ml); 132.5 ± 0.004% in assay [2] (FGF-2 concentration 0.75 ng/ml); 146.4 ± 0.01% in assay [2] (FGF-2 concentration 1 ng/ml).
As for TGF-β, in assay [3], the “% control, total GAGs” value is listed as 240%; the “Activity (cpm), total GAGs” value worked out at 2590 cpm; the “Ratio (act./Prot.), total GAGs” value is given as 709. Moreover, in [4], the “% control, sulfated GAGs” value stood at 176%; the “Activity (cpm), sulfated GAGs” value was 5442 cpm; the “Ratio (act./Prot.), sulfated GAGs” value worked out at 1491.
Turning to chondroitin sulfate, the “FGF-2 protection by GAGs of the skin” value in assay [5] (chondroitin sulfate solutions at 0.1%, 0.01%, 0.001%, further diluted 1/10, 45° C. 2.15 hrs) was < 100%. The “FGF-2 protection by GAGs and proteoglycans of the skin (in words)” value (from here on “FGF-2 protection … (in words)”) in assay [5] (setting [11]) is listed as “depends on its dose”.
Regarding dermatan sulfate, the “FGF-2 protection … (in words)” value in [5] (setting [11]) is recorded as “protects FGF-2”.
On the same count and under the same terms, under heparan sulfate [Heparin sulfate] stands “protects FGF-2”.
heparin: the “Protection of FGF-2, positive control” value in assay [5] (0.01% heparin in the final reaction medium, 45° C. stress of Example 2) is 105.52%±3.04; in assay [6] it was 110.53%±3.20. The “Protection of FGF-2 by heparin (in words)” value in assay [7] (80° C.) is “not effective”. In addition, in [7] (various temperatures), the “Stability of FGF-2 in the presence of heparin (in words)” value is reported as “degradation is stopped”. In addition, in assay [2] (heparin 0.01%, up to 0.5 ng/ml FGF-2), the “Proliferation with FGF-2 protected by heparin (in words)” value is on record as “proliferation is maintained”. The “Activity of FGF-2 at acid and basic pH in the presence of heparin (in words)” value in assay [8] was “retain a similar (or even slightly weaker) activity of FGF-2”. Further, the “Protection of the activity of FGF-2 by heparin (in words)” value in [9] (0° C., 20° C., 37° C., 1 hr to 60 days) is on record as “provides protection of the activity of FGF-2 over time”. Further, the “Activity of FGF-2 in the presence of heparin (in words)” value in assay [9] (60° C. and 90° C.) is listed as “no activity is detected”. The “Protection of FGF-2 against trypsin and chymotripsin (in words)” value in assay [10] is “total protection of FGF-2”.
For the molecule hyaluronic acid [Hyaluronan], the “FGF-2 protection … (in words)” value in assay [5] (setting [11]) is recorded as “by no means allows FGF-2 to be protected”.

B1: decorin: proteoglycan consisting of chondroitin sulfate and dermatan sulfate chains (protein, UniProt P07585 31-359, looked up)
Decorin: DEASGIGPEVPDDRDFEPSLGPVCPFRCQCHLRVVQCSDLGLDKVPKDLPPDTTLLDLQNNKITEIKDGDFKNLKNLHALILVNNKISKVSPGAFTPLVKLERLYLSKNQLKELPEKMPKTLQELRAHENEITKVRKVTFNGLNQMIVIELGTNPLKSSGIENGAFQGMKKLSYIRIADTNITSIPQGLPPSLTELHLDGNKISRVDAASLKGLNNLAKLGLSFNSISAVDNGSLANTPHLRELHLDNNKLTRVPGGLAEHKYIQVVYLHNNNISVVGSSDFCPPGHNTKKASYSGVSLFSNPVQYWEIQPSTFRCVYVRSAIQLGNYK
Regarding B1, the “FGF-2 protection … (in words)” value in [5] (setting [11]) is listed as “inefficient”.

The record behind these values is US9925134B2, “Use of substances to protect FGF-2 or FGF-beta growth factor” (BASF Beauty Care Solutions France SAS, priority 2007, dated 2018).
